Assay results reported in US8222273B2, “Polymorphic form of a [1,2,4]triazole[4,3-A] pyridine derivative inflammatory diseases” (Pfizer Limited, priority 2008, dated 2012).

Tests used:
Assay type in all cases: physicochemical
[1] = Low energy screen (slurry of form B in solvents, PXRD analysis); settings: slurried for 2 weeks in various solvents (incl. dimethylacetamide, N-methyl-Pyrrolidine, pyridine) at 4° C., room temperature (~22° C.) and 40° C.; analysis after 2 weeks and 4 months
Method: A low energy screen was carried using N-[3-tert-butyl-1-(3-chloro-4-hydroxyphenyl)-1H-pyrazol-5-yl]-N′-{2-[(3-{2-[(2-hydroxyethyl)sulfanyl]phenyl}[1,2,4]triazolo[4,3-a]pyridin-6-yl)sulfanyl]benzyl}urea form B to investigate whether it is the lowest energy form of the compound. Samples of form B were slurried for 2 weeks in various solvents at 4° C., room temperature (˜22° C.) and 40° C. Analysis of wet and dried slurries was carried out at after 2 weeks and 4 months using PXRD.

[2] = Hydrate screen (slurry of form B in aqueous pyridine); settings: slurried 2 weeks at 4° C., room temperature (~22° C.) and 40° C. in aqueous pyridine containing 50%, 75% and 90% water
Method: A hydrate screen was conducted by slurrying samples of form B for 2 weeks at 4° C., room temperature (˜22° C.) and 40° C. in aqueous pyridine. The three solvent systems selected contained 50%, 75% and 90% water.

[3] = Hygroscopicity
[4] = Micronisation by jet milling
[5] = Stability of blend with lactose monohydrate on storage; settings: stored under aggressive conditions of heat and humidity

crystalline form after slurrying (PXRD of wet and dried slurries) [1]: remained as Form B
change in crystalline form [2]: No change in crystalline form
hydrated forms observed [2]: No hydrated forms were observed
hygroscopicity [3]: essentially non-hygroscopic
stability when blended with lactose monohydrate [5]: good stability
Structure (SMILES): CC(C)(C)c1cc(NC(=O)NCc2ccccc2Sc2ccc3nnc(-c4ccccc4SCCO)n3c2)n(-c2ccc(O)c(Cl)c2)n1 [form B, N-[3-tert-butyl-1-(3-chloro-4-hydroxyphenyl)-1H-pyrazol-5-yl]-N′-{2-[(3-{2-[(2-hydroxyethyl)sulfanyl]phenyl}[1,2,4]triazolo[4,3-a]pyridin-6-yl)sulfanyl]benzyl}urea]
change in crystalline form on micronisation [4]: without inducing any change in crystalline form
